# Where two headings read alike, the source gives them in different places.
# Experiments:
# 5-HT2C receptor [1] = target: T1, 5-HT2C receptor (Homo sapiens (Human), UniProt P28335); experiment: DOI radioligand binding assay, 5-HT2C
# Protocol: (§1) For the compounds of Table A, the following procedure was used. HEK293 cells stably expressing recombinant 5-HT2 receptors were harvested, suspended in ice-cold phosphate buffered saline, pH 7.4 (PBS), and then centrifuged at 48,000 g for 20 min at 4° C. The resulting cell pellet was then re-suspended in wash buffer containing 20 mM HEPES, pH 7.4 and 0.1 mM EDTA, homogenized on ice using a Brinkman Polytron, and centrifuged (48,000 g for 20 min at 4° C.). The pellet was then resuspended in 20 mM HEPES, pH 7.4, homogenized on ice, and centrifuged (48,000 g for 20 min at 4° C.). Crude membrane pellets were stored at −80° C. until used for radioligand binding assays.
# (§2) For the compounds of Table A, the following procedure was used. […] Experiments comprised addition of 95 μL of assay buffer (20 mM HEPES, pH 7.4, 10 mM MgCl2), 50 μL of membranes, 50 μL of radioligand stock, and 5 μL of test compound diluted in assay buffer to 96-well microtiter plates, which were then incubated for 1 h at room temperature. Assay incubations were terminated by rapid filtration through PerkinElmer F/C filtration plates under reduced pressure using a 96-well Packard filtration apparatus, followed by washing three times with ice cold assay buffer. Plates were then dried at 45° C. for a minimum of 2 h. Finally, 25 μL of BetaScint™ scintillation cocktail was added to each well and the plates were counted in a Packard TopCount® scintillation counter. In each competition study, test compounds were dosed at ten concentrations with triplicate determinations at each test concentration.
# 5-HT2B receptor [2] = target: T2, 5-HT2B receptor (Homo sapiens (Human), UniProt P41595); experiment: IP accumulation assay, 5-HT2B; format: cell-based
# Protocol: (§3) HEK293 cells expressing recombinant 5-HT2 receptors were added to sterile poly-D-lysine-coated 96-well microtiter plates (35,000 cells/well) and labeled with 0.6 μCi/well of [^3H]inositol in myoinositol-free DMEM for 18 h. Unincorporated [^3H]inositol was removed by aspiration and replaced with fresh myoinositol-free DMEM supplemented with LiCl (10 mM final) and pargyline (10 μM final). Serially diluted test compounds were then added and incubation was conducted for 2 h at 37° C. (5-HT2B, and 5-HT2A) and RT (5-HT2C). Incubations were then terminated by lysing cells with the addition of ice-cold 0.1 M formic acid followed by freezing at −80° C. After thawing, total [^3H]inositol phosphates were resolved from [^3H]inositol using AG1-X8 ion exchange resin (Bio-Rad) and [^3H]inositol phosphates were measured by scintillation counting using a Perkin Elmer TopCount® scintillation counter. All EC50 determinations were performed using 10 different concentrations and triplicate determinations were made at each test concentration.
# 5-HT2C receptor [3] = target: T1, 5-HT2C receptor; experiment: IP accumulation assay, 5-HT2C; format: cell-based
# Protocol: as §3
# 5-HT2B receptor [4] = target: T2, 5-HT2B receptor; experiment: DOI radioligand binding assay, 5-HT2B; details: [125I]DOI competition, HEK293 cell membranes
# Protocol: as §1, §2
# [5] = Food intake in the male Sprague Dawley rat; format: in vivo; details: PO 1, 2 or 5 mg/kg, 1 hour following administration, relative to placebo
# Protocol: Male Sprague Dawley rats (225-300 g) were housed three per cage in a temperature and humidity controlled environment (12 h:12 h light:dark cycle, lights on at 0600 h). At 1600 h on the day before the test, rats were placed in fresh cages and food was removed. On test day, rats were placed into individual cages with grid floors at 1000 h with no access to food. At 1130 h, rats (n=8) were administered either vehicle (20% hydroxypropyl-β-cyclodextrin) or test compound via oral gavage (PO, 1 mL/kg, with an amount of 1 mg/kg, 2 mg/kg or 5 mg/kg of test compound) 30 min prior to food presentation. Food intake was measured at 60 min after drug administration (30 min after food presentation).
# [6] = add on treatment, non-depressed patients with poorly controlled epilepsy; cited from earlier work
# [7] = patients without diabetes, cited from earlier work
# [8] = cited from earlier work
# [9] = 10 mg BID, type 2 diabetes; cited from earlier work
# [10] = cited from earlier work; remark: listed apart in the source
# [11] = patients with type 2 diabetes, BID
# [12] = patients without type 2 diabetes
# [13] = pivotal phase 3 program, up to two years
# T2 sequence (P41595 whole entry): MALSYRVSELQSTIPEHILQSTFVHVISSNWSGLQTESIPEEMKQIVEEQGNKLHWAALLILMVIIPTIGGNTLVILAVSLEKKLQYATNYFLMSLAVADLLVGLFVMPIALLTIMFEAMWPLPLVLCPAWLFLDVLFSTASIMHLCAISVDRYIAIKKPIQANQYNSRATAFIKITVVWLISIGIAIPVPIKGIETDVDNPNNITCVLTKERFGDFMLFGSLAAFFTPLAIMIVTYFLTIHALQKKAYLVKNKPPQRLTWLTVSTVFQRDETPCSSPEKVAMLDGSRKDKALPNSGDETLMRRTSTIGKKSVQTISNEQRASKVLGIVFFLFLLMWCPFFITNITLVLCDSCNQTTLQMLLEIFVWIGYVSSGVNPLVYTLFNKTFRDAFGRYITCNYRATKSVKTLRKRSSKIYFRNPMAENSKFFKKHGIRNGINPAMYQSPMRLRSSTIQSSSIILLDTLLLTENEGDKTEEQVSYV
# T1 sequence (P28335 33-458): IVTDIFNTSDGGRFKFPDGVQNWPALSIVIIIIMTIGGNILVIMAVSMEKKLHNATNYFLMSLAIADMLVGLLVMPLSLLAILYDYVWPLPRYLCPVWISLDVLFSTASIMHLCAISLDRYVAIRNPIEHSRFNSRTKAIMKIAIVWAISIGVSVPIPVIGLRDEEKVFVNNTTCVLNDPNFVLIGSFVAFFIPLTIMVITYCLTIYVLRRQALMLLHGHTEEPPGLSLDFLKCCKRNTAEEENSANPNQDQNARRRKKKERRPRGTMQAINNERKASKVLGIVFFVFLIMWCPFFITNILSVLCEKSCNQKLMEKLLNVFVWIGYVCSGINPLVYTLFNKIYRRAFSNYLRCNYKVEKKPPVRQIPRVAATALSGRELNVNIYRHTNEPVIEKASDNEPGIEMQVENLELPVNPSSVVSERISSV
compound,measurement,setting,value
"CC(C)Cc1ccnc2c1CC[C@@H]1CNCCN21 [Compound 114, (R)-4-isobutyl-6,6a,7,8,9,10-hexahydro-5H-pyrazino[1,2-a][1,8]naphthyridine]",Ki,5-HT2C receptor [1],0.587 nM
same,EC50,5-HT2B receptor [2],351 nM
same,EC50,5-HT2C receptor [3],0.424 nM
same,Ki,5-HT2B receptor [4],33 nM
"FC(F)(F)CCc1ccnc2c1CC[C@@H]1CNCCN21 [Compound 152, (R)-4-(3,3,3-trifluoropropyl)-6,6a,7,8,9,10-hexahydro-5H-pyrazino[1,2-a][1,8]naphthyridine]",cumulative food intake,[5],significantly decreased
"c1ccc(Cc2cncc3c2CC[C@@H]2CNCCN32)cc1 [Compound 175, (R)-4-benzyl-6,6a,7,8,9,10-hexahydro-5H-pyrazino[1,2-a][1,7]naphthyridine]",Ki,5-HT2C receptor [1],0.52 nM
same,EC50,5-HT2B receptor [2],19900 nM
same,EC50,5-HT2C receptor [3],0.622 nM
same,Ki,5-HT2B receptor [4],270 nM
CN(C)CCCC1(c2ccc(F)cc2)OCc2cc(C#N)ccc21 (centres unmarked) [citalopram],drop in median seizure frequency,[6],55.6%
"C[C@H]1CNCCc2ccc(Cl)cc21 [lorcaserin, (R)-8-chloro-1-methyl-2,3,4,5-tetrahydro-1H-3-benzazepine]",HOMA-IR change,[7]; one study,−0.4
same,fasting insulin change,[7]; one study,−3.3 μIU/mL
same,mean fasting glucose change,[7],-0.2 mg/dL
same,patients who decreased total daily dose of medications for dyslipidemia,[8]; [11],5.5%
same,patients who increased use of medications for dyslipidemia,[8]; [11],3.1%
same,decrease in mean daily doses of sulfonylureas and thiazolidinediones,[8]; patients with type 2 diabetes,16-24%
same,patients who decreased total daily dose of antihypertensive medications,[8]; patients with type 2 diabetes,8.2%
same,patients who increased total daily dose of antihypertensive medications,[8]; patients with type 2 diabetes,6.6%
same,patients who decreased total daily dose of antihypertensive medications,[8]; [12],2.2%
same,patients who decreased total daily dose of medications for dyslipidemia,[8]; [12],1.3%
same,patients who increased total daily dose of antihypertensive medications,[8]; [12],2.2%
same,patients who increased use of medications for dyslipidemia,[8]; [12],2.6%
same,reduction in HbAlc,[9],0.9%
same,risk of cardiac valvulopathy,[10]; phase 3 program,did not increase
same,patients achieved at least 5% weight loss,[10]; [13],About two-thirds
same,patients achieved at least 10% weight loss,[10]; [13],over one-third
same,"average weight lost, of their weight",[10]; pivotal phase 3 program,about 8%
same,"average weight loss, top quartile of patients",[10]; second phase 3 trial,35 pounds
same,"average weight loss, top quartile of patients, of body weight",[10]; second phase 3 trial,16%
